# Measurements: patent publication US20260137699A1, “OXAZEPINE COMPOUNDS COMPRISING A 6-AZA MOIETY AND USES THEREOF” (Genentech, Inc., priority 2022, published 2026)
# Columns and labels:
# Type in all cases: cell-based
# HPAC cells = experiment: HPAC 3D proliferation assay (CellTiter-Glo 3D); conditions: Homo sapiens, 168 h, 3D culture, 7 days, read-out: HPAC CTG IC50
# Protocol: (§1) Compound potencies were assessed in proliferation assays conducted with SW620 and HPAC cell lines grown in 3D cultures. Cells were seeded into 96- or 384-well ultra-low attachment plates at 3000 or 1000 cells/well, respectively, in culture medium (RPMI-1640, 10% FBS, 2 mM L-glutamine). The plated cells were centrifuged briefly, allowed to rest for 30 minutes under ambient conditions, and cultured overnight at 37° C./5% C02 to initiate the formation of spheroids. Compound dilutions were prepared across a range of concentrations in DMSO and added to the appropriate wells of the assay plates with a 333-fold dilution into the culture medium. The plates were further incubated for 7 days. The quantity of viable cells was assessed using CellTiter-Glo 3D Cell Viability Assay (Promega). The detection reagent penetrates the spheroids and lyses the cells. The released ATP that was detected with luciferase and a luciferase substrate to generate a luminescent readout. […] The data points were fit to a 4-parameter logistic equation to determine IC50 values.
# pERK in SW620 cells = experiment: SW620 pERK assay; conditions: Homo sapiens, SW-620, SW620
# SW620 cells = experiment: SW620 3D proliferation assay (CellTiter-Glo 3D); conditions: Homo sapiens, SW-620, 168 h, SW620, 3D culture, 7 days, read-out: SW620 CTG IC50
# Protocol: as §1
# H1975 cells = experiment: H1975 CTG proliferation assay; conditions: Homo sapiens, NCI-H1975, H1975
IC50 (pERK in SW620 cells),IC50 (SW620 cells),IC50 (H1975 cells),SMILES,IC50 (HPAC cells)
0.00234 µM,–,–,"Cc1nc(N)c(Cl)c(-c2nc3c4c(nc(OC[C@@]56CCCN5C[C@H](F)C6)nc4c2F)N([C@H](C)c2cccnc2N)CCO3)c1C(F)(F)F (atropisomer, axis not shown; (aS)) [Example 601a, 4-((R)-10-((R)-1-(2-aminopyridin-3-yl)ethyl)-4-fluoro-2-(((2R,7aS)-2-fluorotetrahydro-1H-pyrrolizin-7a(5H)-yl)methoxy)-9,10-dihydro-8H-7-oxa-1,3,6,10-tetraazacyclohepta[de]naphthalen-5-yl)-3-chloro-6-methyl-5-(trifluoromethyl)pyridin-2-amine]",0.0336 µM
–,–,–,"Cc1c(F)c(N)cc(-c2nc3c4c(nc(OC[C@@H]5CC(F)(F)CN5C)nc4c2F)N([C@H](C)c2nccnc2N)CCO3)c1C(F)(F)F [Example 8, 3-((R)-1-(5-(5-amino-4-fluoro-3-methyl-2-(trifluoromethyl)phenyl)-2-(((S)-4,4-difluoro-1-methylpyrrolidin-2-yl)methoxy)-4-fluoro-8,9-dihydro-10H-7-oxa-1,3,6,10-tetraazacyclohepta[de]naphthalen-10-yl)ethyl)pyrazin-2-amine]",≥ 2 µM
0.0156 µM,0.0093 µM,0.0802 µM,"Cc1nc(N)c(Cl)c(-c2nc3c4c(nc(OC[C@@]56CCCN5C[C@H](F)C6)nc4c2F)N([C@H](C)c2cccnc2N)CCO3)c1C(F)(F)F (single isomer, unassigned) [Example 601b]",0.0867 µM
–,–,–,"C[C@H](c1cccnc1N)N1CCOc2nc(-c3cccc4sc(N)nc34)c(F)c3nc(OC[C@@]45CCCN4C[C@H](F)C5)nc1c23 [Example 24, 4-(10-((R)-1-(2-aminopyridin-3-yl)ethyl)-4-fluoro-2-(((2R,7aS)-2-fluorotetrahydro-1H-pyrrolizin-7a(5H)-yl)methoxy)-9,10-dihydro-8H-7-oxa-1,3,6,10-tetraazacyclohepta[de]naphthalen-5-yl)benzo[d]thiazol-2-amine]",≥ 2 µM
